# Like-named read-outs stand apart in the source and are kept apart here.
# Assay: Pharmacokinetic analysis of RA in an SH-SY5Y xenograft model (retinoid concentrations in plasma, liver, tumour by LC/MS)
# Format: in vivo, CD-1 nude mice
# Conditions: for % Total retinoids, tumour, 0.5 h / % Total retinoids, tumour, 2 h / % Total retinoids, tumour, 6 h / % Total retinoids, liver, 0.5 h / % Total retinoids, liver, 2 h / % Total retinoids, liver, 6 h / % Total retinoids, plasma, 0.5 h / % Total retinoids, plasma, 2 h / % Total retinoids, plasma, 6 h / concentration at 0.5 h / concentration at 2 h / concentration at 6 h: label = retinoid measured; for concentration at 0.5 h / concentration at 2 h / concentration at 6 h / Tmax: female, CD-1 nu/nu (athymic nude), mouse; for concentration at 0.5 h / concentration at 2 h / concentration at 6 h: po; for Tmax: 100 mg kg^−1 oral, sampled at 0.5, 2, 6 h, read-out: Time of peak plasma levels
# Description: All in vivo experiments were approved by the relevant institutional animal welfare committees, and performed according to national law. Female athymic nude mice (CD-1 nu/nu, Charles River) used for antitumour studies were maintained and handled in isolators, under specific pathogen-free conditions, at 24°C with a 12 h light, 12 h dark cycle. Tumours were generated by implantation of SH-SY5Y cells subcutaneously (s.c.) into one flank of CD-1 nude mice (1 × 10^7 cells per animal).
# Treatments began when the tumours were between 7 and 10 mm in length and breadth. Retinoids and R116010 were initially dissolved in DMSO before 10- or 20-fold dilutions in PBS, respectively. For pharmacokinetic studies, the animals were dosed with ATRA or 13cisRA (each 100 mg kg^−1) orally for 0.5, 2 and 6 h. For metabolism studies, animals were treated with R116010 orally at doses of 1.25 or 2.5 mg kg^−1 either immediately before the retinoid being studied, or up to three times (over 1–2 days) before dosing with the retinoid. At termination of experiments, animals were bled under terminal anaesthesia then killed by cervical dislocation. Plasma was immediately removed from the blood by centrifugation at 1000 g for 5 min and snap-frozen in liquid nitrogen in amber Eppendorfs. Tumour and liver samples were removed and snap-frozen, wrapped in foil, in liquid nitrogen.
# Cell pellets obtained from retinoid incubations were re-suspended in 2 ml cell culture medium and disrupted by passing the samples several times through a syringe and hypodermic needle (25G × 1 inches, 0.5 mm × 25 mm; Terumo, Somerset, NJ, USA). Tumour and liver tissues were re-suspended in PBS and homogenised (T25 homogeniser, IKA Laboratories, Staufen, Germany). Retinoids were extracted as described previously ([Veal et al, 2002]; [Armstrong et al, 2005b]). Samples were reconstituted in 200 μl mobile phase A (n-hexane:dichloromethane:propan-2-ol, 400 : 1 : 0.27) and analysed by normal-phase HPLC as described previously ([Veal et al, 2002]). For LC/MS analysis, samples were reconstituted in 200 μl mobile phase A (50% acetonitrile, 50% (0.2%) acetic acid, v v^−1).
# Resolution of retinoids was performed with a Luna C18(2) column (3 μm, 50 mm × 2 mm) using a Perkin Elmer LC (Beaconsfield, UK) system, consisting of a vacuum degasser, two series 200 pumps, a thermostatically controlled series 200 autosampler and a Waters 2487 UV absorbance detector. Retinoic isomers and metabolites were separated by gradient reversed-phase chromatography. An injection volume of 20 μl with a flow rate of 0.2 ml min^−1 was used with mobile phase A (50% acetonitrile, 50% (0.2%) acetic acid, v v^−1) and mobile phase B (acetonitrile, 0.1% acetic acid, v v^−1). Linear gradients were employed between the specified times as follows: 0, 100% A; 5 min, 100% A; 15 min, 100% B; 20 min, 100% B; 23 min, 100% A; 35 min, 100% A. An Applied Biosystems (Warrington, UK) API-2000 LC/MS/MS triple Q (quadrupole) mass spectrometer with electrospray ionisation source, controlled by Analyst software, was operated in single quadrupole negative mode for the detection of compounds.
# [1] = after 13cisRA 100 mg kg^−1 oral, SH-SY5Y tumour
# [2] = after 13cisRA 100 mg kg^−1 oral, liver
# [3] = after 13cisRA 100 mg kg^−1 oral, plasma
# [4] = after ATRA 100 mg kg^−1 oral, SH-SY5Y tumour
# [5] = after ATRA 100 mg kg^−1 oral, liver
# [6] = after ATRA 100 mg kg^−1 oral, plasma
# [7] = liver, 100 mg kg^−1, after 13cisRA 100 mg kg^−1 oral, liver, read-out: Liver concentration, 0.5 h
# [8] = liver, 100 mg kg^−1, after 13cisRA 100 mg kg^−1 oral, liver, read-out: Liver concentration, 2 h
# [9] = liver, 100 mg kg^−1, after 13cisRA 100 mg kg^−1 oral, liver, read-out: Liver concentration, 6 h
# [10] = liver, 100 mg kg^−1, after ATRA 100 mg kg^−1 oral, liver, read-out: Liver concentration, 0.5 h
# [11] = liver, 100 mg kg^−1, after ATRA 100 mg kg^−1 oral, liver, read-out: Liver concentration, 2 h
# [12] = liver, 100 mg kg^−1, after ATRA 100 mg kg^−1 oral, liver, read-out: Liver concentration, 6 h
# [13] = plasma, 100 mg kg^−1, after 13cisRA 100 mg kg^−1 oral, plasma, read-out: Plasma concentration, 0.5 h
# [14] = plasma, 100 mg kg^−1, after 13cisRA 100 mg kg^−1 oral, plasma, read-out: Plasma concentration, 2 h
# [15] = plasma, 100 mg kg^−1, after 13cisRA 100 mg kg^−1 oral, plasma, read-out: Plasma concentration, 6 h
# [16] = plasma, 100 mg kg^−1, after ATRA 100 mg kg^−1 oral, plasma, read-out: Plasma concentration, 0.5 h
# [17] = plasma, 100 mg kg^−1, after ATRA 100 mg kg^−1 oral, plasma, read-out: Plasma concentration, 2 h
# [18] = plasma, 100 mg kg^−1, after ATRA 100 mg kg^−1 oral, plasma, read-out: Plasma concentration, 6 h
# [19] = tumour (SH-SY5Y xenograft), 100 mg kg^−1, after 13cisRA 100 mg kg^−1 oral, SH-SY5Y tumour, read-out: Tumour concentration, 0.5 h
# [20] = tumour (SH-SY5Y xenograft), 100 mg kg^−1, after 13cisRA 100 mg kg^−1 oral, SH-SY5Y tumour, read-out: Tumour concentration, 2 h
# [21] = tumour (SH-SY5Y xenograft), 100 mg kg^−1, after 13cisRA 100 mg kg^−1 oral, SH-SY5Y tumour, read-out: Tumour concentration, 6 h
# [22] = tumour (SH-SY5Y xenograft), 100 mg kg^−1, after ATRA 100 mg kg^−1 oral, SH-SY5Y tumour, read-out: Tumour concentration, 0.5 h
# [23] = tumour (SH-SY5Y xenograft), 100 mg kg^−1, after ATRA 100 mg kg^−1 oral, SH-SY5Y tumour, read-out: Tumour concentration, 2 h
# [24] = tumour (SH-SY5Y xenograft), 100 mg kg^−1, after ATRA 100 mg kg^−1 oral, SH-SY5Y tumour, read-out: Tumour concentration, 6 h
"% Total retinoids, tumour, 0.5 h [1]","% Total retinoids, tumour, 2 h [1]","% Total retinoids, tumour, 6 h [1]","% Total retinoids, liver, 0.5 h [2]","% Total retinoids, liver, 2 h [2]","% Total retinoids, liver, 6 h [2]","% Total retinoids, plasma, 0.5 h [3]","% Total retinoids, plasma, 2 h [3]","% Total retinoids, plasma, 6 h [3]","% Total retinoids, tumour, 0.5 h [4]","% Total retinoids, tumour, 2 h [4]","% Total retinoids, tumour, 6 h [4]","% Total retinoids, liver, 0.5 h [5]","% Total retinoids, liver, 2 h [5]","% Total retinoids, liver, 6 h [5]","% Total retinoids, plasma, 0.5 h [6]","% Total retinoids, plasma, 2 h [6]","% Total retinoids, plasma, 6 h [6]",concentration at 0.5 h [7],concentration at 2 h [8],Compound,other results
90%,81%,49%,75%,58%,18%,93%,93%,78%,2%,3%,3%,11%,5%,5%,5%,6%,8%,3770 ± 1050 ng/g,2330 ± 110 ng/g,"CC1=C(/C=C/C(C)=C/C=C/C(C)=C\C(=O)O)C(C)(C)CCC1 [13cisRA, 13-cis-retinoic acid]","Plasma % of total retinoids at all time points (after ATRA 100 mg kg^−1, plasma, 0.5, 2 and 6 h): < 10%; concentration at 6 h [9]: 980 ± 120 ng/g; concentration at 0.5 h [10]: 420 ± 300 ng/g; concentration at 2 h [11]: 400 ± 80 ng/g; concentration at 6 h [12]: 250 ± 60 ng/g; concentration at 0.5 h [13]: 14.2 ± 4.71 µM; concentration at 2 h [14]: 19.1 ± 3.26 µM; concentration at 6 h [15]: 4.69 ± 0.52 µM; concentration at 0.5 h [16]: 0.67 ± 0.55 µM; concentration at 2 h [17]: 1.55 ± 0.33 µM; concentration at 6 h [18]: 1.53 ± 0.66 µM; Tmax (plasma): 2 h; concentration at 0.5 h [19]: 2000 ± 670 ng/g; concentration at 2 h [20]: 2120 ± 570 ng/g; concentration at 6 h [21]: 280 ± 40 ng/g; concentration at 0.5 h [22]: 70 ± 70 ng/g; concentration at 2 h [23]: 280 ± 70 ng/g; concentration at 6 h [24]: 150 ± 30 ng/g"
7%,14%,16%,2%,1%,<1%,5%,3%,1%,90%,95%,80%,77%,81%,46%,91%,88%,70%,120 ± 80 ng/g,50 ± 50 ng/g,"CC1=C(/C=C/C(C)=C/C=C/C(C)=C/C(=O)O)C(C)(C)CCC1 [ATRA, all-trans-retinoic acid]","Plasma % of total retinoids at all time points (after 13cisRA 100 mg kg^−1, plasma, 0.5, 2 and 6 h): < 10%; Intratumoral % of total retinoids at all time points (after ATRA 100 mg kg^−1, tumour, 0.5, 2 and 6 h): ≥ 80%; concentration at 6 h [9]: 20 ± 20 ng/g; concentration at 0.5 h [10]: 3070 ± 1950 ng/g; concentration at 2 h [11]: 6920 ± 1130 ng/g; concentration at 6 h [12]: 2400 ± 360 ng/g; concentration at 0.5 h [13]: 0.69 ± 0.49 µM; concentration at 2 h [14]: 0.57 ± 0.57 µM; concentration at 6 h [15]: 0.08 ± 0.08 µM; concentration at 0.5 h [16]: 13 ± 10.4 µM; concentration at 2 h [17]: 24.4 ± 1.94 µM; concentration at 6 h [18]: 12.8 ± 4.61 µM; Tmax (plasma): 2 h; concentration at 0.5 h [19]: 150 ± 90 ng/g; concentration at 2 h [20]: 370 ± 160 ng/g; concentration at 6 h [21]: 90 ± 20 ng/g; concentration at 0.5 h [22]: 2590 ± 2280 ng/g; concentration at 2 h [23]: 9410 ± 2230 ng/g; concentration at 6 h [24]: 3780 ± 590 ng/g"
